This is an account of results in doi:10.1101/2025.03.31.646301v1, “Discovery of Tankyrase scaffolding inhibitor specifically targeting the ARC4 peptide binding domain” (biorxiv, 2025).

Each structure is given as a SMILES string.

One assay deals with T1, TNKS1 ARC4 (Homo sapiens, UniProt O95271).
T1 construct: gene TNKS; ankyrin repeat cluster 4 domain, 6xHis-mCerulean (CFP) fusion, E. coli
T1 sequence (O95271 649-806 limits assumed): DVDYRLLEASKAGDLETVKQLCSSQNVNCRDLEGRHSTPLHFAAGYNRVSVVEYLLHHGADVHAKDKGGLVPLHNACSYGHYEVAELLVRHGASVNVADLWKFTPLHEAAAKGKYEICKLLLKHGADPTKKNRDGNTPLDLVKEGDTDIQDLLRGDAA
Description: FRET displacement of YFP-REAGDGEE peptide from CFP-ARC. The class given is binding. From the text: FRET displacement of YFP-REAGDGEE peptide from CFP-ARC on TNKS1 ARC4

A further assay concerns the target T2, TNKS1 ARC5 (Homo sapiens, UniProt O95271).
T2 construct: gene TNKS; ankyrin repeat cluster 5 domain, 6xHis-mCerulean (CFP) fusion, E. coli
T2 sequence (O95271 806-966 limits assumed): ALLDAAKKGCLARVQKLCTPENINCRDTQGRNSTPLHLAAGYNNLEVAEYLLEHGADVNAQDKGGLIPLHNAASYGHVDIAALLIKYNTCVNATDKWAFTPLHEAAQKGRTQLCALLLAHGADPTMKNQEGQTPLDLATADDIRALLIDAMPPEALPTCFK
The description is as above. The class given is binding. The source says: FRET displacement of YFP-REAGDGEE peptide from CFP-ARC on TNKS1 ARC5

For assay [1], the target named is T3, TNKS2 ARC4 (Homo sapiens, UniProt Q9H2K2).
T3 construct: ankyrin repeat cluster 4 domain; FRET: 6xHis-mCerulean (CFP) fusion; DSF, NMR, crystal: MBP and His tag cleaved by TEV, residues 487-649 printed for crystal; E. coli BL21(DE3)
T3 sequence (Q9H2K2 487-649): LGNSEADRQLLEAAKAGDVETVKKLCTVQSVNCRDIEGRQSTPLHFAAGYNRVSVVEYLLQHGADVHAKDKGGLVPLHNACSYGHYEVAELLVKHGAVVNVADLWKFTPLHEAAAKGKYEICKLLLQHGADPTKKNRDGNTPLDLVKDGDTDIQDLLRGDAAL
The assay can be described thus: X-ray co-crystal structure. The class given is binding. As to conditions: residues 487-649, tag-free, pH 4.2; S enantiomer in TBM pocket, R enantiomer at crystal contacts.

The target in the next assay is T4, TNKS2 ARC2 (Homo sapiens, UniProt Q9H2K2).
T4 construct: ankyrin repeat cluster 2 domain, 6xHis-mCerulean (CFP) fusion, E. coli
T4 sequence (Q9H2K2 173-329 limits assumed): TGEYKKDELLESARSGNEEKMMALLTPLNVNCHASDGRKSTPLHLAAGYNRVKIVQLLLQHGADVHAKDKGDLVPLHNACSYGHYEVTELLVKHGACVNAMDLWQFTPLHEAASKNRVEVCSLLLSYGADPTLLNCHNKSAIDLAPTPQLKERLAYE
The assay can be described thus: FRET displacement of YFP-REAGDGEE peptide from CFP-ARC. The class given is binding. The source says: FRET displacement of YFP-REAGDGEE peptide from CFP-ARC on TNKS2 ARC2

Assay [2] has as its target T3, TNKS2 ARC4. On the set-up: DSF thermal shift of TNKS2 ARC4, stabilization over DMSO control. As to conditions: binder.
The target of a further assay is T5, TNKS1 ARC2-3 (Homo sapiens, UniProt O95271).
T5 construct: gene TNKS; ankyrin repeat clusters 2-3, 6xHis-mCerulean (CFP) fusion, E. coli
T5 sequence (O95271 336-649 limits assumed): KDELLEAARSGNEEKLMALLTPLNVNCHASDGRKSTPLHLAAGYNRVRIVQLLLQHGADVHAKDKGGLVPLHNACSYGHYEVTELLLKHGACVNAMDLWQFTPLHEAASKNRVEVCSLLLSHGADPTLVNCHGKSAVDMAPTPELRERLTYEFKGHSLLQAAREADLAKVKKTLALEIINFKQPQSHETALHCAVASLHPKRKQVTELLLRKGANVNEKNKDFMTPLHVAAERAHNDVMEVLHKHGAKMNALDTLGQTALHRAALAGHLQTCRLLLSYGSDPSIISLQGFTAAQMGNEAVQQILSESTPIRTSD
Description: FRET displacement of YFP-REAGDGEE peptide from CFP-ARC. The class given is binding. From the text: FRET displacement of YFP-REAGDGEE peptide from CFP-ARC on TNKS1 ARC2-3

A further assay has as its target T6, TNKS1 ARC1 (Homo sapiens, UniProt O95271).
T6 construct: gene TNKS; ankyrin repeat cluster 1 domain, 6xHis-mCerulean (CFP) fusion, E. coli
T6 sequence (O95271 173-336 limits assumed): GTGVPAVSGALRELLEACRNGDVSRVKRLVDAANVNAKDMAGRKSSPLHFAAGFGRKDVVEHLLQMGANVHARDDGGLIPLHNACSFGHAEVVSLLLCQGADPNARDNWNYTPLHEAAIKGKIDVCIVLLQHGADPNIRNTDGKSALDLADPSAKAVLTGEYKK
The assay is described as above. The class given is binding. From the text: FRET displacement of YFP-REAGDGEE peptide from CFP-ARC on TNKS1 ARC1

A further assay has as its target T7, TNKS2 ARC1 (Homo sapiens, UniProt Q9H2K2).
T7 construct: ankyrin repeat cluster 1 domain, 6xHis-mCerulean (CFP) fusion, E. coli
T7 sequence (Q9H2K2 21-174 limits assumed): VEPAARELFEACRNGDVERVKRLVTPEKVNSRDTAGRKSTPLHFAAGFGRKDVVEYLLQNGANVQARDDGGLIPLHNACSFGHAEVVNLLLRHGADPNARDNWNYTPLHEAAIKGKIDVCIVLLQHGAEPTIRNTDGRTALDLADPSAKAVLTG
Described as above. The class given is binding. The source says:
FRET displacement of YFP-REAGDGEE peptide from CFP-ARC on TNKS2 ARC1

Assay [3] deals with T3, TNKS2 ARC4. The description is as above. The class given is binding.
A further assay concerns the target T8, TNKS2 ARC5 (Homo sapiens, UniProt Q9H2K2).
T8 construct: ankyrin repeat cluster 5 domain, 6xHis-mCerulean (CFP) fusion, E. coli
T8 sequence (Q9H2K2 646-800 limits assumed): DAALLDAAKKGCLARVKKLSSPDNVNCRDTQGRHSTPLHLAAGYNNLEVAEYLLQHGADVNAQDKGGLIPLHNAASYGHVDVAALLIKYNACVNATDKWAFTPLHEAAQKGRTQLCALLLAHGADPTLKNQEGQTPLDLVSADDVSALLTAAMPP
Described as above. The class given is binding. From the text:
FRET displacement of YFP-REAGDGEE peptide from CFP-ARC on TNKS2 ARC5

Regarding `CCC(CC)CCCN1C(=O)C(O)=C(C(=O)c2ccc3c(c2)OCCO3)[C@@H]1c1ccc(O)cc1` [S8], the IC50 on TNKS1 ARC4 is 9 µM; on TNKS1 ARC5, over 1000 µM; at TNKS2 ARC2, over 1000 µM; on TNKS1 ARC2-3, over 1000 µM; at TNKS1 ARC1, over 1000 µM. Moreover, the X-ray co-crystal structure entry on TNKS2 ARC4 [1] was “we co-crystallized the compound displaying the best potency (S8) with TNKS2 ARC4”. Besides, the “ΔTm ± SD (°C)” value on TNKS2 ARC4 [2] worked out at 2.44 ± 0.12 °C.

`CCN(CC)CCCN1C(=O)C(O)=C(C(=O)c2ccc3c(c2)OCCO3)C1c1ccc(O)cc1` (stereo not drawn) [compound 1, 1]: the IC50 at TNKS2 ARC1 was over 1000 µM; on TNKS1 ARC4, 18 µM; at TNKS2 ARC4 [3], 16 µM; at TNKS2 ARC5, over 1000 µM; at TNKS1 ARC5 it was over 1000 µM; on TNKS2 ARC2, over 1000 µM. Also, the IC50 on TNKS1 ARC2-3 and at TNKS1 ARC1 was over 1000 µM each time.

Take `Cc1ccc(C2C(C(=O)c3ccc4c(c3)OCCO4)=C(O)C(=O)N2CCCN2CCOCC2)cc1` (stereo not drawn) [compound 4, 4]: the IC50 at TNKS2 ARC1 is over 1000 µM; on TNKS1 ARC4, 121 µM; on TNKS2 ARC4 [3], 77 µM; on TNKS2 ARC5, over 1000 µM; at TNKS1 ARC5, over 1000 µM; at TNKS2 ARC2 it was over 1000 µM. Further, the IC50 at TNKS1 ARC2-3 and on TNKS1 ARC1 was over 1000 µM throughout. Besides, the “ΔTm ± SD (°C)” value at TNKS2 ARC4 [2] was 2.19 ± 0.31 °C.

Take `COc1ccc(C2C(C(=O)c3ccc4c(c3)OCCO4)=C(O)C(=O)N2CCCN2CCOCC2)cc1` (stereo not drawn) [compound 6, 6]: the IC50 at TNKS2 ARC1 was over 1000 µM; at TNKS1 ARC4 it was 123 µM; at TNKS2 ARC4 [3], 82 µM; on TNKS2 ARC5 it was over 1000 µM; on TNKS1 ARC5, over 1000 µM; on TNKS2 ARC2, over 1000 µM. Moreover, the IC50 at TNKS1 ARC2-3 and on TNKS1 ARC1 was over 1000 µM throughout. In addition, the “ΔTm ± SD (°C)” value on TNKS2 ARC4 [2] stood at 1.81 ± 0.31 °C.
